According to ChEMBL document CHEMBL1127243, “8-chlorodibenz[b,f][1,4]oxazepine-10(11H)-carboxylic acid,2-[3-[2-(furanylmethyl)thio]-1-oxopropyl]hydrazide (SC-51322): A potent PGE2 antagonist and analgesic” (Bioorg Med Chem Lett, 1994):

Columns and labels:
[1] = Compound was tested for antagonism of Prostaglandin E2 receptor activity in guinea pig ileum assay based on the dose ratio at 3 uM; conditions: read-out: pA2 (converted)
Mus musculus = test: Compound was tested for analgesic activity in the mouse writhing assay at intragastric dose of 30 mg/Kg; type: functional; conditions: po

SMILES	Kb [1]	ED50 (Mus musculus)
O=C(CC[S+]([O-])Cc1ccco1)NNC(=O)N1Cc2ccccc2Oc2ccc(Cl)cc21 (configuration not stated)	631 nM	5 mg/kg
O=C(CCS(=O)(=O)Cc1ccco1)NNC(=O)N1Cc2ccccc2Oc2ccc(Cl)cc21	251 nM	5 mg/kg
O=C(CCSCc1ccco1)NNC(=O)N1Cc2ccccc2Oc2ccc(Cl)cc21		0.9 mg/kg
O=C(CCCCCl)NNC(=O)N1Cc2ccccc2Oc2ccc(Cl)cc21 [PINADOLINE]	631 nM	9.8 mg/kg
